Measurements taken from US9187472B2 (AbbVie Inc., priority 2012, dated 2015).

System: PC3 cells
Assay: NAMPT Cell Proliferation Assay
Assay type: cell-based
Conditions: Homo sapiens, PC-3, 120 h, 5 days incubation, cell viability by Cell Titer Glo
Experimental: NAMPT Cell Proliferation Assay
PC3 cells were seeded in 96-well black plates (Corning #3904) at 500 cells/well in 90 μl of RPMI media containing 10% heat-inactivated FBS and incubated overnight at 37° C. and 5% CO2 to allow cells to attach to wells. The following day, test compounds were serially diluted in neat DMSO to 1000× final concentrations prior to dilution with RPMI media to 10× and 1% DMSO. Ten μL of the 10× compounds were then transferred to wells containing cells to produce a dose response of 10-fold dilutions from 10 μM to 1×10^−5 μM. Cells were incubated for 5 days at 37° C. and 5% CO2, then cell viability was measured using Cell Titer Glo reagent (Promega #G7571). Percent inhibition values were calculated and fitted to a sigmoidal dose response curves using Assay Explorer software to determine IC50s.

Row | IC50 | Structure (SMILES)
1 | 8.24 nM | O=C(NCc1ccc2ncnn2c1)c1ccc(C2CCN(S(=O)(=O)c3ccccc3)CC2)s1 [Example 860, 5-[1-(phenylsulfonyl)piperidin-4-yl]-N-([1,2,4]triazolo[1,5-a]pyridin-6-ylmethyl)thiophene-2-carboxamide]
2 | 0.574 nM | CC1(Cn2cc(-c3ccc(C(=O)NCc4cn5ccnc5cn4)s3)cn2)CCOCC1 [Example 861, N-(imidazo[1,2-a]pyrazin-6-ylmethyl)-5-{1-[(4-methyltetrahydro-2H-pyran-4-yl)methyl]-1H-pyrazol-4-yl}thiophene-2-carboxamide]
3 | 0.78 nM | CC(C)(C)OC(=O)N1CCC(c2ccc(NC(=O)Cc3ccc4nccn4c3)cc2)CC1 [Example 862, tert-butyl 4-{4-[(imidazo[1,2-a]pyridin-6-ylacetyl)amino]phenyl}piperidine-1-carboxylate]
4 | 0.642 nM | O=C(Cc1ccc2nccn2c1)Nc1ccc(C2CCN(C(=O)c3ccccc3F)CC2)cc1 [Example 863, N-{4-[1-(2-fluorobenzoyl)piperidin-4-yl]phenyl}-2-(imidazo[1,2-a]pyridin-6-yl)acetamide]
5 | 67.2 nM | O=C(NCc1cn2ccnc2cn1)c1ccc(C2CCN(S(=O)(=O)c3ccccc3)CC2)cc1 [Example 864, N-(imidazo[1,2-a]pyrazin-6-ylmethyl)-4-[1-(phenylsulfonyl)piperidin-4-yl]benzamide]
6 | 0.861 nM | CC(C)C(=O)N1CCC(c2ccc(NC(=O)Cc3ccc4nccn4c3)cc2)CC1 [Example 865, 2-(imidazo[1,2-a]pyridin-6-yl)-N-{4-[1-(2-methylpropanoyl)piperidin-4-yl]phenyl}acetamide]
7 | 0.525 nM | O=C(Cc1ccc2nccn2c1)Nc1ccc(C2CCN(C(=O)c3ccc(F)cc3F)CC2)cc1 [Example 866, N-{4-[1-(2,4-difluorobenzoyl)piperidin-4-yl]phenyl}-2-(imidazo[1,2-a]pyridin-6-yl)acetamide]
8 | 68.7 nM | COc1ccccc1CC(=O)Nc1ccc(C(=O)NCc2ccn3ccnc3c2)cc1 [Example 867, N-(imidazo[1,2-a]pyridin-7-ylmethyl)-4-{[(2-methoxyphenyl)acetyl]amino}benzamide]
9 | 86.9 nM | O=C(Cc1ccccc1)Nc1ccc(C(=O)NCc2ccn3ccnc3c2)cc1 [Example 868, N-(imidazo[1,2-a]pyridin-7-ylmethyl)-4-[(phenylacetyl)amino]benzamide]
10 | 6870 nM | O=C(NCc1ccn2ccnc2c1)c1ccc(NC(=O)c2ccccc2)cc1 [Example 869, 4-(benzoylamino)-N-(imidazo[1,2-a]pyridin-7-ylmethyl)benzamide]
11 | 994 nM | O=C(NCc1ccn2ccnc2c1)c1ccc(NC(=O)c2cc(F)ccc2F)cc1 [Example 870, 2,5-difluoro-N-{4-[(imidazo[1,2-a]pyridin-7-ylmethyl)carbamoyl]phenyl}benzamide]
12 | 7300 nM | O=C(NCc1ccn2ccnc2c1)c1ccc(NC(=O)c2cc(F)cc(F)c2)cc1 [Example 871, 3,5-difluoro-N-{4-[(imidazo[1,2-a]pyridin-7-ylmethyl)carbamoyl]phenyl}benzamide]
13 | > 10000 nM | O=C(NCc1ccn2ccnc2c1)c1ccc(NC(=O)c2ccc(F)c(F)c2)cc1 [Example 872, 3,4-difluoro-N-{4-[(imidazo[1,2-a]pyridin-7-ylmethyl)carbamoyl]phenyl}benzamide]
14 | 3870 nM | O=C(NCc1ccn2ccnc2c1)c1ccc(NC(=O)c2ccc(F)cc2F)cc1 [Example 873, 2,4-difluoro-N-{4-[(imidazo[1,2-a]pyridin-7-ylmethyl)carbamoyl]phenyl}benzamide]
15 | 6650 nM | O=C(NCc1ccn2ccnc2c1)c1ccc(NC(=O)c2ccccc2F)cc1 [Example 874, 2-fluoro-N-{4-[(imidazo[1,2-a]pyridin-7-ylmethyl)carbamoyl]phenyl}benzamide]
16 | 1140 nM | COc1cccc(C(=O)Nc2ccc(C(=O)NCc3ccn4ccnc4c3)cc2)c1 [Example 875, N-{4-[(imidazo[1,2-a]pyridin-7-ylmethyl)carbamoyl]phenyl}-3-methoxybenzamide]
17 | 47.7 nM | O=C(Cc1ccccc1F)Nc1ccc(C(=O)NCc2ccn3ccnc3c2)cc1 [Example 876, 4-{[(2-fluorophenyl)acetyl]amino}-N-(imidazo[1,2-a]pyridin-7-ylmethyl)benzamide]
18 | > 10000 nM | CC(C)CC1CCCN1C(=O)c1ccc(C(=O)NCc2ccn3ccnc3c2)cc1 (stereo not drawn) [Example 877, N-(imidazo[1,2-a]pyridin-7-ylmethyl)-4-{[2-(2-methylpropyl)pyrrolidin-1-yl]carbonyl}benzamide]
19 | > 10000 nM | COC[C@H]1CCCN1C(=O)c1ccc(C(=O)NCc2ccn3ccnc3c2)cc1 [Example 878, N-(imidazo[1,2-a]pyridin-7-ylmethyl)-4-{[(2R)-2-(methoxymethyl)pyrrolidin-1-yl]carbonyl}benzamide]
20 | 63.3 nM | CC(C)(C(=O)N1CCC(c2ccc(C(=O)NCc3ccn4ccnc4c3)s2)CC1)N1CCNCC1 [Example 879, N-(imidazo[1,2-a]pyridin-7-ylmethyl)-5-{1-[2-methyl-2-(piperazin-1-yl)propanoyl]piperidin-4-yl}thiophene-2-carboxamide]

Row | IC50 | Structure (SMILES)
21 | 750 nM | COc1ccccc1C(=O)Nc1ccc(C(=O)NCc2ccn3ccnc3c2)cc1 [Example 880, N-{4-[(imidazo[1,2-a]pyridin-7-ylmethyl)carbamoyl]phenyl}-2-methoxybenzamide]
22 | 8490 nM | O=C(NCc1ccn2ccnc2c1)c1ccc(S(=O)(=O)c2ccccc2)cc1 [Example 881, N-(imidazo[1,2-a]pyridin-7-ylmethyl)-4-(phenylsulfonyl)benzamide]
23 | > 10000 nM | O=C(NCc1ccc2ncnn2c1)c1ccc(S(=O)(=O)c2ccccc2)cc1 [Example 882, 4-(phenylsulfonyl)-N-([1,2,4]triazolo[1,5-a]pyridin-6-ylmethyl)benzamide]
24 | 0.22 nM | CC(C)(C)Cn1cc(-c2ccc(C(=O)NCc3ccn4ccnc4c3)s2)cn1 [Example 883, 5-[1-(2,2-dimethylpropyl)-1H-pyrazol-4-yl]-N-(imidazo[1,2-a]pyridin-7-ylmethyl)thiophene-2-carboxamide]
25 | 0.968 nM | O=C(NCc1ccn2ccnc2c1)c1ccc(-c2cnn(CC34CC5CC(CC(C5)C3)C4)c2)s1 [Example 884]
26 | 5.33 nM | O=C(NCc1ccn2ccnc2c1)c1ccc(-c2cnn(Cc3ccccc3)c2)s1 [Example 885, 5-(1-benzyl-1H-pyrazol-4-yl)-N-(imidazo[1,2-a]pyridin-7-ylmethyl)thiophene-2-carboxamide]
27 | 0.194 nM | O=C(NCc1ccn2ccnc2c1)c1ccc(-c2cnn(CC34CC5CC(CC(C5)O3)C4)c2)s1 [Example 886]
28 | 0.214 nM | O=C(NCc1ccn2ccnc2c1)c1ccc(C2CCN(C(=O)c3cc(F)ccc3F)CC2)s1 [Example 887, 5-[1-(2,5-difluorobenzoyl)piperidin-4-yl]-N-(imidazo[1,2-a]pyridin-7-ylmethyl)thiophene-2-carboxamide]
29 | 0.494 nM | O=C(NCc1ccn2ccnc2c1)c1ccc(C2CCN(C(=O)c3ccc(F)cc3F)CC2)s1 [Example 888, 5-[1-(2,4-difluorobenzoyl)piperidin-4-yl]-N-(imidazo[1,2-a]pyridin-7-ylmethyl)thiophene-2-carboxamide]
30 | 651 nM | O=C(NCc1ccn2ccnc2c1)c1ccc(-c2cnn(CCN3CCNCC3)c2)o1 [Example 889, N-(imidazo[1,2-a]pyridin-7-ylmethyl)-5-{1-[2-(piperazin-1-yl)ethyl]-1H-pyrazol-4-yl}furan-2-carboxamide]
31 | 31.8 nM | O=C(Cc1cc(F)ccc1F)Nc1ccc(C(=O)NCc2ccn3ccnc3c2)cc1 [Example 890, 4-{[(2,5-difluorophenyl)acetyl]amino}-N-(imidazo[1,2-a]pyridin-7-ylmethyl)benzamide]
32 | 87.2 nM | O=C(Cc1ccc(F)cc1F)Nc1ccc(C(=O)NCc2ccn3ccnc3c2)cc1 [Example 891, 4-{[(2,4-difluorophenyl)acetyl]amino}-N-(imidazo[1,2-a]pyridin-7-ylmethyl)benzamide]
33 | 6.76 nM | Cn1nc(C2CC2)cc1-c1ccc(C(=O)NCc2ccn3ccnc3c2)s1 [Example 892, 5-(3-cyclopropyl-1-methyl-1H-pyrazol-5-yl)-N-(imidazo[1,2-a]pyridin-7-ylmethyl)thiophene-2-carboxamide]
34 | 0.662 nM | COCCn1nc(C2CC2)cc1-c1ccc(C(=O)NCc2ccn3ccnc3c2)s1 [Example 893, 5-[3-cyclopropyl-1-(2-methoxyethyl)-1H-pyrazol-5-yl]-N-(imidazo[1,2-a]pyridin-7-ylmethyl)thiophene-2-carboxamide]
35 | 202 nM | O=C(NCc1cn2ccnc2cn1)c1ccc(-c2cnn(CCN3CCNCC3)c2)s1 [Example 894, N-(imidazo[1,2-a]pyrazin-6-ylmethyl)-5-{1-[2-(piperazin-1-yl)ethyl]-1H-pyrazol-4-yl}thiophene-2-carboxamide]
36 | 730 nM | O=C(NCc1ccn2ccnc2c1)c1ccc(NC(=O)C(F)(F)c2ccccc2)cc1 [Example 895, 4-{[difluoro(phenyl)acetyl]amino}-N-(imidazo[1,2-a]pyridin-7-ylmethyl)benzamide]
37 | 1580 nM | CC(C)(C(=O)Nc1ccc(C(=O)NCc2ccn3ccnc3c2)cc1)c1ccccc1 [Example 896, N-(imidazo[1,2-a]pyridin-7-ylmethyl)-4-[(2-methyl-2-phenylpropanoyl)amino]benzamide]
38 | 716 nM | O=C(NCc1cn2ccnc2cn1)c1ccc(S(=O)(=O)c2ccccc2)cc1 [Example 897, N-(imidazo[1,2-a]pyrazin-6-ylmethyl)-4-(phenylsulfonyl)benzamide]
39 | 223 nM | O=C(NCc1ccc2nccn2c1)c1ccc(S(=O)(=O)c2ccccc2)cc1 [Example 898, N-(imidazo[1,2-a]pyridin-6-ylmethyl)-4-(phenylsulfonyl)benzamide]
